Data taken from ChEMBL document CHEMBL1130829, “Inhibition of human cytomegalovirus protease N(o) with monocyclic beta-lactams” (Bioorg Med Chem Lett, 1998).

Columns and labels:
Cathepsin B = Cathepsin B (Homo sapiens, UniProt P07858); assay: Inhibitory activity against Cathepsin B
Chymotrypsinogen B = Chymotrypsinogen B (Homo sapiens, UniProt P17538); assay: Inhibitory activity against alpha-chymotrypsin
Neutrophil elastase = target: T1, Neutrophil elastase (Homo sapiens, UniProt P08246); assay: Inhibitory activity against human leukocyte elastase protease(HLE)
T1 sequence (P08246 whole entry): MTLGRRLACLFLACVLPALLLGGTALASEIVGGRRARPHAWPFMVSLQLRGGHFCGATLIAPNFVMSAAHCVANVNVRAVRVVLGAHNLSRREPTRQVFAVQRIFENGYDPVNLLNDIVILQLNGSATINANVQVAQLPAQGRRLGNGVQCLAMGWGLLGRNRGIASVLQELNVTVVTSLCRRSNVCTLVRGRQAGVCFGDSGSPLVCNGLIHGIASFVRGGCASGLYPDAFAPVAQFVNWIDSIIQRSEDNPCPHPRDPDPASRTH

[1] = target: T2, Capsid scaffolding protein (Human cytomegalovirus (strain AD169) (HHV-5) (Human herpesvirus 5), UniProt P16753); assay: Inhibitory activity against human cytomegalovirus (HCMV) protease; design: species or system Human herpesvirus 5 strain AD169
T2 sequence (P16753 whole entry): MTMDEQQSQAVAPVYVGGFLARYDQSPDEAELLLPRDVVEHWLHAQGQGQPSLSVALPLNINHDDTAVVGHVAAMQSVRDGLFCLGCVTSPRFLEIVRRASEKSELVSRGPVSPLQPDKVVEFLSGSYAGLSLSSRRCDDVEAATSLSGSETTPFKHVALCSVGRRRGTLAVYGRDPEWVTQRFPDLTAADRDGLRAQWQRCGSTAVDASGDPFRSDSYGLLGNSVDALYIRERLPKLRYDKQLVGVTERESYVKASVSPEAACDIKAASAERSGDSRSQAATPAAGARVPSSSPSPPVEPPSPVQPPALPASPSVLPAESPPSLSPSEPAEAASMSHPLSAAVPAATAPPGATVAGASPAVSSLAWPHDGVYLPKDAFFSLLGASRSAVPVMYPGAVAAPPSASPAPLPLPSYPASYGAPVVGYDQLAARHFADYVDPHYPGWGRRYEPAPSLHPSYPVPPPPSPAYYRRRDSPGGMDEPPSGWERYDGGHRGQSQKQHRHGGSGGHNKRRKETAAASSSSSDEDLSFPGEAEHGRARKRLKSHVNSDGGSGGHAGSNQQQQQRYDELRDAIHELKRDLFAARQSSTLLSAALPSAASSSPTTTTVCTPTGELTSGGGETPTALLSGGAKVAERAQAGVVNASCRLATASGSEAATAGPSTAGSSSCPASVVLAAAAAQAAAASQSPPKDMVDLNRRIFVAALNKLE

Sequence of Chymotrypsinogen B (P17538 34-164 limits assumed, other chains not shown): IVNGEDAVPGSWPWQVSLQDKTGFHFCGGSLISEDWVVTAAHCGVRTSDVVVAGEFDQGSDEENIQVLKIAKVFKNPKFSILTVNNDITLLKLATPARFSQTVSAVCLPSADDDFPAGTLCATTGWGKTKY
Sequence of Chymotrypsinogen B (P17538 167-263 limits assumed, other chains not shown): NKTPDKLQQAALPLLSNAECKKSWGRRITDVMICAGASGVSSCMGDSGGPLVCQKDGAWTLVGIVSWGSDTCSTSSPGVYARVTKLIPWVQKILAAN

SMILES | IC50 (Cathepsin B) | IC50 (Chymotrypsinogen B) | IC50 (Neutrophil elastase) | IC50 [1]
CC(C)C[C@@H](COC1CC(=O)N1C(=O)NCc1ccccc1)NC(=O)[C@@H](NC(=O)OC(C)(C)C)C(C)(C)C (stereo partly drawn) | > 75 µM | 8.3 µM | > 75 µM | –
CC(C)C[C@@H](COC1CC(=O)N1C(=O)N[C@H](C)c1ccccc1)NC(=O)[C@@H](NC(=O)OC(C)(C)C)C(C)(C)C (stereo partly drawn) | > 75 µM | > 75 µM | > 75 µM | 1.4 µM
C[C@@H](NC(=O)N1C(=O)CC1SCCc1ccccc1)c1ccccc1 (stereo partly drawn) | > 75 µM | > 75 µM | > 75 µM | –
C[C@@H](NC(=O)N1C(=O)CC1SCc1ccccn1)c1ccccc1 (stereo partly drawn) | > 75 µM | > 75 µM | > 75 µM | –
C[C@@H](NC(=O)N1C(=O)CC1SCc1ccc(CC(=O)OC(C)(C)C)cc1)c1ccccc1 (stereo partly drawn) | > 75 µM | > 75 µM | > 75 µM | 75 µM
CC(C)C[C@@H](COC1CC(=O)N1C(=O)N[C@@H](C)c1ccccc1)NC(=O)[C@@H](NC(=O)OC(C)(C)C)C(C)(C)C (stereo partly drawn) | > 75 µM | > 75 µM | > 75 µM | 0.3 µM
C[C@@H](NC(=O)N1C(=O)CC1SCc1cccnc1)c1ccccc1 (stereo partly drawn) | > 75 µM | > 75 µM | > 75 µM | –
C[C@@H](NC(=O)N1C(=O)CC1Sc1ccccc1)c1ccccc1 (stereo partly drawn) | > 75 µM | > 75 µM | > 75 µM | –
C[C@@H](NC(=O)N1C(=O)CC1SCc1ccncc1)c1ccccc1 (stereo partly drawn) | > 75 µM | > 75 µM | > 75 µM | –
C[C@@H](NC(=O)N1C(=O)CC1SCc1ccccc1)c1ccccc1 (stereo partly drawn) | > 75 µM | > 75 µM | > 75 µM | 2.4 µM
CC(C)C[C@@H](COC1CC(=O)N1)NC(=O)[C@@H](NC(=O)OC(C)(C)C)C(C)(C)C (stereo partly drawn) | – | – | – | > 300 µM
CC[C@@H](NC(=O)N1C(=O)[C@@H](C)[C@@H]1SCc1ccccn1)c1ccccc1 | > 75 µM | 1.7 µM | < 0.15 µM | –
CC[C@H](NC(=O)N1C(=O)CC1SC[C@H](CC(C)C)NC(=O)[C@@H](NC(=O)CC(C)(C)C)C(C)(C)C)c1ccccc1 (stereo partly drawn) | > 75 µM | > 75 µM | > 75 µM | 0.07 µM
CC(C)C[C@@H](CSC1CC(=O)N1C(=O)NCc1ccccc1)NC(=O)[C@@H](NC(=O)OC(C)(C)C)C(C)(C)C (stereo partly drawn) | > 75 µM | 0.8 µM | > 75 µM | –
CC[C@@H](NC(=O)N1C(=O)CC1SCc1ccccn1)c1ccccc1 (stereo partly drawn) | > 75 µM | > 75 µM | > 75 µM | –
O=C1CC(SCc2ccccn2)N1C(=O)NCCOCc1ccccc1 (stereo not drawn) | > 75 µM | > 75 µM | > 75 µM | 6.4 µM
O=C1CC(SCc2ccccn2)N1C(=O)N[C@H](CO)c1ccccc1 (stereo partly drawn) | > 75 µM | > 75 µM | > 75 µM | –
C[C@@H](NC(=O)N1C(=O)CC1SCC(=O)c1ccccc1)c1ccccc1 (stereo partly drawn) | > 75 µM | > 75 µM | > 75 µM | –
